Several values for one entry are separate records, joined by “and”; a condition that tells them apart may be missing. Equal entries are not always repeated. Structures can show the parent of a compound that is named as a salt.
Tests used:
HL60 cells = experiment: Cell proliferation assay (CellTiter 96 AQueous) in HL60 cells; conditions: Homo sapiens, HL-60, 72 h, read-out: GI50 (µM) ± SE HL60
Experimental: (§3) To further investigate the inhibition properties of the carbamates, we tested their antiproliferative activity on human promyelocytic leukemia cells (HL60) and on human histiocytic lymphoma cells (U937).
(§4) HL60 or U937 cells were seeded in 96-well tissue culture plates at a density of 5 × 10^4 cells per well. Cells were immediately incubated with inhibitors. As these cells already differentiate with 1% DMSO content, inhibitors were prepared as 200× stock solutions in DMSO. In all cases, inhibitors were compared to DMSO vehicle only, and three replicates per concentration were used. Growth inhibition was determined using the CellTiter 96® AQueous Non-Radioactive Cell Proliferation Assay according to the manufacturer’s instructions. Briefly, 5 × 10^4 of HL60 or U937 cells per well were treated with DMSO stocks of the respective inhibitors or with DMSO in 100 µL cell culture medium and incubated for 72 h at 37 °C and 5% CO2 in transparent 96-well microtiter plates (PAA). Subsequently, 20 µL of the detection reagent (containing a tetrazolium salt) was added to each well and incubated for 4 more hours under the same conditions. After this time, absorption was measured at a wavelength of 490 nm (BMG Polarstar, BMG Labtech, Ortenberg, Germany).

U937 cells = experiment: Cell proliferation assay (CellTiter 96 AQueous) in U937 cells; conditions: Homo sapiens, U-937, 72 h, read-out: GI50 (µM) ± SE U937
Experimental: as §3, §4

recombinant human HDAC1 = biological target: T1, recombinant human HDAC1 (Homo sapiens, UniProt Q13547); experiment: HDAC1 in vitro fluorescence-based inhibition assay (ZMAL substrate); assay type: biochemical; conditions: for IC50: read-out: IC50 (µM) ± SE HDAC1
T1 construct: purchased BPS Biosciences (San Diego, CA, USA)
From the text: (§1) In order to investigate a potential subtype selectivity among different HDAC classes, we first tested them against the recombinant histone deacetylases HDAC1 (class I) and HDAC6 (class llb). […] To further address this issue, we also tested the respective compounds against the class l histone deacetylase HDAC8 (also see Table 1).
(§2) Recombinant human HDAC1 and 6 were purchased from BPS Biosciences (San Diego, CA, USA), and recombinant human HDAC8 was produced as described before. Inhibition tests of human HDAC1 and 6 were conducted using carboxybenzyl acetyllysine aminomethylcoumarin (ZMAL) as a substrate. […] For testing of HDAC8, the commercial Fluor de Lys drug discovery kit (BML-KI178) (Enzo Life Sciences, Lausen, Switzerland) was used according to the manufacturer’s instruction. Briefly, the test compound, Fluor de Lys-HDAC8 substrate (50 μM), and enzyme were incubated for 90 min at 37 °C with subsequent addition of 50 μL of Developer II (BML-KI176) (Enzo Life Sciences, Lausen, Switzerland) and further incubation for 45 min at 30 °C. In both assays, trichostatin A (2 μM) was used to stop the reaction. Fluorescence in both cases was measured in a plate reader (BMG Polarstar, BMG Labtech, Ortenberg, Germany) with excitation at λ = 390 nm and emission at λ = 460 nm.

recombinant human HDAC6 = biological target: T2, recombinant human HDAC6 (Homo sapiens, UniProt Q9UBN7); experiment: HDAC6 in vitro fluorescence-based inhibition assay (ZMAL substrate); assay type: biochemical; conditions: recombinant human HDAC6, ZMAL 10.5 µM, 90 min 37 °C; for IC50: read-out: IC50 (µM) ± SE HDAC6
T2 construct: purchased BPS Biosciences (San Diego, CA, USA)
T2 sequence (Q9UBN7 1-1215): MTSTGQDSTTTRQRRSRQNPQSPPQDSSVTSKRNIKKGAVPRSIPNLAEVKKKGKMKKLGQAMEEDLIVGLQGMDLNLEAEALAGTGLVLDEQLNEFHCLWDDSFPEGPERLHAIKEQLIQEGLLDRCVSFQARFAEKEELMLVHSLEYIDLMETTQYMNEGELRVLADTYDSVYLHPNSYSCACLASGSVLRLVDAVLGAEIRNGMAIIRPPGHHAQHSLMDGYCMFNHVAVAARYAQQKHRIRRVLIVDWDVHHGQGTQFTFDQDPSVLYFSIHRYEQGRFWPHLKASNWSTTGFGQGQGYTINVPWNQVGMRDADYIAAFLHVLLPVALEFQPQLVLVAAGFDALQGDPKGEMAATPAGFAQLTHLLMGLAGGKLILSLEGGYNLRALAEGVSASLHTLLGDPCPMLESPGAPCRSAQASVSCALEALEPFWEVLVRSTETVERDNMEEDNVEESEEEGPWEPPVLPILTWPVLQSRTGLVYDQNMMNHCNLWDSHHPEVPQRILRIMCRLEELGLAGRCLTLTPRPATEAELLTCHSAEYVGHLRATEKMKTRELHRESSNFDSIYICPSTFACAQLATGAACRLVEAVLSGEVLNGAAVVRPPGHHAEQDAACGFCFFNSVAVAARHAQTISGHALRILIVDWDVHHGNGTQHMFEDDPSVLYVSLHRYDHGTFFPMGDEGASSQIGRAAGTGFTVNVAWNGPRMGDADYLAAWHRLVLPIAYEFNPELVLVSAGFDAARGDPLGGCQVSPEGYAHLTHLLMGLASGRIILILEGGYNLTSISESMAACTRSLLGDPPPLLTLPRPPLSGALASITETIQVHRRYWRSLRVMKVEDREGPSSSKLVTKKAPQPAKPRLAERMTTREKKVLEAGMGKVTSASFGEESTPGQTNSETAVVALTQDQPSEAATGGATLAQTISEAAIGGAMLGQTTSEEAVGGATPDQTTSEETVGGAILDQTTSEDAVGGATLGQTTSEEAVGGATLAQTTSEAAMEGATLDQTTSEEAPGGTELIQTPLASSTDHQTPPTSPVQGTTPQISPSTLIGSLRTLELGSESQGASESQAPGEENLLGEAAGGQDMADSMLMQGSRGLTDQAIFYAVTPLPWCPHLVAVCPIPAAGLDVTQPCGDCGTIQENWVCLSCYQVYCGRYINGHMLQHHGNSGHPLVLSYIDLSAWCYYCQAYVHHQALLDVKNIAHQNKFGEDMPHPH
From the text: as §1, §2

[1] = Stability analysis under in vitro assay conditions, HPLC quantification of released hydroxamic acid; assay type: physicochemical; conditions: in vitro assay conditions without substrate, HDAC1 present, compound 2.4 mM, 90 min 37 °C
Experimental: In order to address the question if the newly-synthesized carbamates are hydrolyzed during the assay procedure or if they really serve as HDAC inhibitors themselves, stability stress tests were performed. For this purpose, the compounds were subjected to the standard in vitro assay conditions, but without adding a substrate as, no enzyme conversion should be observed in these experiments. After 90 min of incubation at 37 °C, the release of SAHA of the different samples was detected and quantified via HPLC. This led to the finding that a release of SAHA could be detected for all samples (see Table 1). […] This means that the question if the carbamate scaffold represents a new warhead for HDAC inhibition or if the degradation to SAHA is solely responsible for the observed inhibitory effects cannot be resolved completely.
To test the stability of Compound 9 under assay conditions, we also performed stability analysis with HPLC quantification. This experiment led to the finding that 8.7% of the carbamate 9 is degraded under release of bufexamac during incubation time. This fraction of released bufexamac may contribute to in vitro and cellular HDAC inhibition, but the observed selectivity profile of the carbamate in the in vitro assays clearly implies an intrinsic HDAC activity of carbamates.
For stability tests, the carbamates were subjected to the described in vitro assay conditions (see above) without adding the substrate ZMAL and without the second incubation step with trypsin. Compounds were applied in a final concentration of 2.4 mM, and recombinant HDAC1 was used as the enzyme. After 90 min of incubation at 37 °C, the release of SAHA was detected via HPLC on an Agilent 1200 series device. The employed analytical column was a Kinetex 5u XB-C18, 100 Å, 250 × 4.6 mm (Phenomenex, Torrance, CA, USA) with the ReproSil 100 C18 5-µm precolumn (Jasco, Oklahoma City, OK, USA). The following conditions were applied: Eluent A: H2O containing 0.05% TFA, Eluent B: acetonitrile containing 0.05% TFA, linear gradient conditions (0–4 min, A = 90%, B = 10%; 4–29 min, linear increase to 100% of B; 29–31 min, B = 100%; 31.5–40 min, A = 10%, B = 90%); injection volume: 30 µL, flow rate: 1 mL/min; detection wavelength: λ = 254 nm. For evaluation, the ChemStation software from Agilent was used. To quantify the released amount of SAHA and bufexamac, calibration curves were plotted by incubating DMSO stocks of these compounds under in vitro assay conditions with final compound concentrations ranging from 1 µM–200 µM. HPLC analysis with the conditions described above led to the following equations: y = 13.935x − 27.918 for SAHA and y = 0.6099x + 1.1301 for bufexamac.

[2] = system: acetylation of histone H3 and tubulin in HL60 cells; experiment: Western blot of acetylation levels of histone H3 and tubulin in HL60 cells; assay type: cell-based, human; conditions: 4 h
Experimental: An inhibition of deacetylation in this experiment is expected to lead to hyperacetylation of the respective proteins. Besides histone H3, acetylated tubulin was chosen as a target protein. As tubulin is only accepted as a target by HDAC 6 [21], this allows us to explore subtype selectivity in a cellular setting (see Figure 4).
HL60 cells were treated with the inhibitors in the given concentrations. Cells treated with dimethyl sulfoxide as a vehicle were used as controls. After an incubation time of 4 h, cells were transferred into 50-mL Falcon tubes and centrifuged (300× g, 5 min). The supernatant was removed, and the cells were washed with PBS, before they were transferred to 1.7-mL reaction tubes. The cells were lysated with Bio-Rad loading buffer, and the cell suspension was heated to 95 °C for 5 min. The proteins then were separated using a 15% SDS-polyacrylamide gel electrophoresis and transferred to a polyvinylidene fluoride (PVDF) membrane (Roti-PVDF, Carl Roth, Karlsruhe, Germany). Acetylation levels were detected using an anti-acetyl histone H3 antibody (Millipore, Billerica, MA, USA) and an anti-acetyl-α-tubulin antibody (Sigma Aldrich, St. Louis, MO, USA). An antibody directed against GAPDH (Sigma Aldrich) was used as a loading control.

[3] = system: HDAC activity in HL60 cells; experiment: Cellular HDAC inhibition assay (MAL substrate) in HL60 cells; conditions: Homo sapiens, HL-60, read-out: IC50 (µM) ± SE cellular HDAC inhibition HL60
Experimental: (§5) Therefore, we decided to adapt this assay for a cellular setting allowing us to verify the previous results by assessing HDAC inhibition in the human leukemia cell lines HL60 and U937 (see the right side of Table 2).
(§6) After 2 h of incubation, 50 µL substrate solution were added, containing tert-butyloxycarbonyl acetyl lysine aminomethylcoumarin (MAL) as a substrate (300 µM final assay concentration) and IGEPAL CA-630 (final concentration 0.05%). After 2 more hours of incubation at 37 °C and 5% CO2, 50 µL stop solution consisting of 0.5 µL TSA (100 µM) and 5 µL trypsin solution (10 mg/mL) in 44.5 µL cell buffer were added. This mixture was incubated for a further 20 min at 37 °C. Fluorescence was measured in a plate reader (BMG Polarstar) with excitation at λ = 390 nm and emission at λ = 460 nm.

recombinant human HDAC8 = biological target: T3, recombinant human HDAC8 (Homo sapiens, UniProt Q9BY41); experiment: HDAC8 in vitro inhibition assay (Fluor de Lys kit); assay type: biochemical; conditions: at 100 µM; read-out: Inhibition (%) @ Conc. (µM) HDAC8
T3 construct: made in house
T3 sequence (Q9BY41 1-377): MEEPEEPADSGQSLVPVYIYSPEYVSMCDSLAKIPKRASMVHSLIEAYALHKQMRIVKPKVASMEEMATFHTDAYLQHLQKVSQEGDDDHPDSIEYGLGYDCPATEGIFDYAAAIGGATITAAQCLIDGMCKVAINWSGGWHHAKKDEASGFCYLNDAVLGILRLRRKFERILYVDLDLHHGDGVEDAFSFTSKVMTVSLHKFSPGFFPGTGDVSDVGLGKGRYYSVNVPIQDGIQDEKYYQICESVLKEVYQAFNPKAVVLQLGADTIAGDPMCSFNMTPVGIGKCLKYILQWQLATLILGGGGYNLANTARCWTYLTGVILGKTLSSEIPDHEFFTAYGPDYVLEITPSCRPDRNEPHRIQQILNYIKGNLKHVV
From the text: as §1, §2

[4] = system: HDAC activity in U937 cells; experiment: Cellular HDAC inhibition assay (MAL substrate) in U937 cells; conditions: Homo sapiens, U-937, read-out: IC50 (µM) ± SE cellular HDAC inhibition U937
Experimental: as §5, §6

[5] = recombinant human HDAC1, ZMAL 10.5 µM, 90 min 37 °C

T1 sequence (Q13547 whole entry): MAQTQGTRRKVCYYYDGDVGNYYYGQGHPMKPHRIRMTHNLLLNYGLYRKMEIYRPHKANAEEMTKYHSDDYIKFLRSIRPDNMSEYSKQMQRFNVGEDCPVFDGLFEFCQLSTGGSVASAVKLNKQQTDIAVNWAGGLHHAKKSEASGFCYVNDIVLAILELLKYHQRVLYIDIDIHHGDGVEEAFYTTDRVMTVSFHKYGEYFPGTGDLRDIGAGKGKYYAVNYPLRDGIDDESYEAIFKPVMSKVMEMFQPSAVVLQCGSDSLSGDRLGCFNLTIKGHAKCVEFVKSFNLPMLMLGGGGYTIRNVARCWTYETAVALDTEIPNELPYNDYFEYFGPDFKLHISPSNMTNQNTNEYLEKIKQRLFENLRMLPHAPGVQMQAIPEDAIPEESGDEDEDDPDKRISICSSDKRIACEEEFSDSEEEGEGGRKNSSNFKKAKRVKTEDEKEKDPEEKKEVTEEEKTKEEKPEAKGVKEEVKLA

GI50 (HL60 cells) [µM] | GI50 (U937 cells) [µM] | IC50 (recombinant human HDAC1; [5]) | IC50 (recombinant human HDAC6) | Release of SAHA (%) [1] [%] | IC50 [3] [µM] | IC50 (µM) ± SE HDAC1 (recombinant human HDAC1; [5]) | IC50 (µM) ± SE HDAC6 (recombinant human HDAC6) | inhibition at 100 µM (recombinant human HDAC8) [%] | IC50 [4] [µM] | Compound | effect on H3 and tubulin acetylation levels [2] | inhibition at 300 µM (recombinant human HDAC1; at 300 µM, read-out: Inhibition (%) @ Concentration (µM) HDAC1) [%] | acetylation levels of H3 [2] | tubulin acetylation [2]
0.54 ± 0.03 | 0.43 ± 0.09 |  |  |  |  |  |  |  |  | O=C(CCCCCCC(=O)Nc1ccccc1)NO [SAHA (1), N-hydroxy-N′-phenyloctanediamide, reference compound] |  |  |  | 
25.9 ± 1.96 |  | 5.1 µM and 5.09 µM | 3.7 µM and 3.71 µM | 3.7 | 22.4 ± 0.28 |  |  |  |  | O=C(CCCCCCC(=O)Nc1ccccc1)NOC(=O)N1CCNCC1 [Compound 7, [(8-Anilino-8-oxo-octanoyl)amino]piperazin-4-ium-1-carboxylate trifluoroacetate] | least effective substance |  |  | 
1.02 ± 0.09 | 0.49 ± 0.09 | 1.52 ± 0.02 µM | 2.11 ± 0.02 µM | 2.2 | 3.25 ± 0.02 | low micromolar range | low micromolar range | 35 | 5.3 ± 0.59 | CC(C)NC(=O)ONC(=O)CCCCCCC(=O)Nc1ccccc1 [Compound 2a, [(8-Anilino-8-oxo-octanoyl)amino]N-isopropylcarbamate] |  |  |  | 

Compound | GI50 (HL60 cells) [µM] | GI50 (U937 cells) [µM] | IC50 (recombinant human HDAC1; [5]) | IC50 (recombinant human HDAC6) | Release of SAHA (%) [1] [%] | IC50 [3] [µM] | IC50 (µM) ± SE HDAC1 (recombinant human HDAC1; [5]) | IC50 (µM) ± SE HDAC6 (recombinant human HDAC6) | inhibition at 100 µM (recombinant human HDAC8) [%] | IC50 [4] [µM] | effect on H3 and tubulin acetylation levels [2] | inhibition at 300 µM (recombinant human HDAC1; at 300 µM, read-out: Inhibition (%) @ Concentration (µM) HDAC1) [%] | acetylation levels of H3 [2] | tubulin acetylation [2]
CCCCOc1ccc(CC(=O)NOC(=O)NC(C)C)cc1 [Compound 9] | 33.99 ± 0.06 |  |  | 13.7 ± 0.16 µM |  |  |  |  |  |  |  | 49 | not affected | hyperacetylation of tubulin
